# Laboratory results: patent US6383479B1, “Neutrophil-activating factor” (Novartis AG, priority 1987, dated 2002)
# Experiments:
# Rabbit neutrophils = experiment: NAF-induced exocytosis in rabbit neutrophils (N-acetyl-β-glucosaminidase release); format: cell-based; conditions: 15 min, cytochalasin B pretreated, purified natural NAF
# Protocol: Rabbit neutrophils are isolated from peripheral blood (obtained from the ear vein or artery) by dextran sedimentation followed by Hypaque-Ficoll density gradient centrifugation. Purified natural NAF is used.
# Exocytosis conditions: 0.6×10^6 cells (in a total volume of 0.15 ml) pretreated with cytochalasin B for 5 min at 37° are stimulated with NAF (0.1-100 nM) or fMLP (100 nM) for 15 min. N-acetyl-β-glucosaminidase, an azurophil granule marker, is determined in the cell-free medium.
# human neutrophils [1] = experiment: stimulus-dependent exocytosis of granule contents by human neutrophils; format: cell-based
# Protocol: Neutrophils (5×10^6/ml) suspended in PBS/BSA are preincubated with or without cytochalasin B (5 μg/ml) at 37° for 5 min.
# Granule release is then initiated by adding the stimulus, e.g. NAF or a standard stimulus. The reaction is stopped 15 min later by rapid cooling in ice followed by centrifugation to sediment the cells. Vitamin B12-binding protein, β-glucuronidase and lactate dehydrogenase are determined in the cell-free media and cell pellets, and the release of these constituents is calculated in percent of the total cellular content (B. Dewalt and M. Baggiolini, Methods Enzymol. 132 [1986] 267).
# Natural and recombinant NAF are tested in parallel on human neutrophils. They elicit virtually identical changes in cytosolic free Ca^2+, yielding a maximum rise at a concentration as low as 3 nM (FIG. 15). A nearly identical concentration-dependent respiratory burst response is obtained with both preparations in the range of 1 to 30 nM as assessed by chemiluminescence. The equivalence between natural and recombinant NAF is also reflected by chemotaxis and exocytosis measurements. Chemotactic migration is observed between 0.1 and 10 nM with a maximum effect at 1 nM. (Table 6). With either peptide a significant release of vitamin B12-binding protein from the specific granules at 0.3 nM and of beta-glucuronidase from the azurophil granules at 1 nM is observed.
# [2] = system: mouse, rat and guinea pig; experiment: preliminary tests of NAF activity in mouse, rat and guinea pig
# Description: The biological properties of NAF are species-specific. Activity in the rabbit most closely mirrors activity in humans.
# [3] = resistance of NAF activity to heat, pH, denaturing agents and proteases; format: physicochemical
# Protocol: Partially purified NAF obtained upon phosphocellulose chromatography (Example 4) is used in these experiments. Following phosphocellulose chromatography, fractions with the highest NAF activity are dialysed overnight at 4° against PBS using a membrane with a molecular weight cut-off of 1000 daltons. The preparation obtained is then subjected to the following treatments: a) incubation at 37° with and without trypsin, chymotrypsin or proteinase K (100 μg/ml) followed by the addition of an excess of BSA (2 mg/ml) to stop NAF proteolysis; b) heating to 56°, 80° or 95° (as compared to 22° for control); c) exposure to pH 2 or 10 (at 22°) followed by adjustment to pH 7.4 (as compared to pH 7.4 for control); d) exposure to 2 M lithium chloride, 6 M guanidinium chloride, 1% 2-mercaptoethanol or 0.5% sodium dodecyl sulfate (SDS) for 3 h at 22°, followed by dialysis for 24 h at 4° against PBS. When additions are made, samples without NAF are handled in the same way and tested for possible influence on the NAF assay.
# human neutrophils [4] = experiment: superoxide formation (SOD-sensitive cytochrome c reduction) by human neutrophils; format: cell-based; conditions: per 10^6 cells
# Protocol: a) Superoxide production: neutrophils (3×10^6 /ml) are preincubated at 37° with or without 1 μm PAF for 2 minutes and then stimulated with increasing amounts of NAF. Recordings of cytochrome c reduction following NAF addition are shown.
# Superoxide formation is measured at 37° as the SOD sensitive reduction of ferricytochrome c (M. Markert et al., Methods Enzymol. 132 [1984] 267). The assay mixture (800 μl) consists of 0.75×10^6 cells/ml PBS-BSA containing 85 μM cytochrome c. Absorbance changes are recorded in a Hewlett-Packard 8451A diode array spectrophotometer equipped with a thermostated seven-place cuvette exchanger. Table 4 documents the capacity of NAF to elicit the respiratory burst in human neutrophils: […]
# [5] = NAF 50 μl, with CB (cytochalasin B 5 μg/ml)
# [6] = NAF 100 μl, with CB (cytochalasin B 5 μg/ml)
substance,measurement,setting,value
neutrophil-activating factor [NAF],N-acetyl-β-glucosaminidase,Rabbit neutrophils; stimulus 0.1 nM,53 pmol/min
same,N-acetyl-β-glucosaminidase,Rabbit neutrophils; stimulus 1.0 nM,99 pmol/min
same,N-acetyl-β-glucosaminidase,Rabbit neutrophils; stimulus 10.0 nM,139 pmol/min
same,N-acetyl-β-glucosaminidase,Rabbit neutrophils; stimulus 100.0 nM,157 pmol/min
same,Percent release of Vit. B12-binding protein,human neutrophils [1]; [5],25.6 ± 3.4%
same,Percent release of lactate dehydrogenase,human neutrophils [1]; [5],6.7 ± 1.6%
same,Percent release of β-glucuronidase,human neutrophils [1]; [5],7.9 ± 2.0%
same,Percent release of Vit. B12-binding protein,"human neutrophils [1]; NAF 50 μl, without CB",12.9 ± 1.6%
same,Percent release of lactate dehydrogenase,"human neutrophils [1]; NAF 50 μl, without CB",5.8 ± 0.7%
same,Percent release of β-glucuronidase,"human neutrophils [1]; NAF 50 μl, without CB",2.7 ± 1.3%
same,Percent release of Vit. B12-binding protein,human neutrophils [1]; [6],26.8 ± 4.9%
same,Percent release of lactate dehydrogenase,human neutrophils [1]; [6],7.3 ± 2.1%
same,Percent release of β-glucuronidase,human neutrophils [1]; [6],8.5 ± 1.7%
same,Percent release of Vit. B12-binding protein,"human neutrophils [1]; NAF 100 μl, without CB",13.9 ± 2.1%
same,Percent release of lactate dehydrogenase,"human neutrophils [1]; NAF 100 μl, without CB",6.8 ± 2.2%
same,Percent release of β-glucuronidase,"human neutrophils [1]; NAF 100 μl, without CB",3.0 ± 1.3%
same,"activity in the mouse, rat and guinea pig",[2],not shown any clear activity
same,Relative activity,"[3]; 2-mercaptoethanol 1.0%, 22°, 3 h",30
same,Relative activity,"[3]; SDS 0.5%, 22°, 3 h",100
same,Relative activity,"[3]; Temperature 22°, 3 h (control)",100
same,Relative activity,"[3]; Temperature 56°, 1 h",82
same,Relative activity,"[3]; Temperature 80°, 15 min",80
same,Relative activity,"[3]; Temperature 95°, 5 min",66
same,Relative activity,"[3]; guanidinium chloride 6M, 22°, 3 h",68
same,Relative activity,"[3]; lithium chloride 2M, 22°, 3 h",52
same,Relative activity,"[3]; pH 2.0, 22°, 3 h",76
same,Relative activity,"[3]; pH 10.0, 22°, 3 h",90
same,Relative activity,"[3]; proteinase K 100 μg/ml, 37°, 12 h",0
same,Relative activity,"[3]; trypsin 100 μg/ml, 37°, 4 h",100
same,Relative activity,"[3]; trypsin 100 μg/ml, 37°, 12 h",8
same,Relative activity,"[3]; α-chymotrypsin 100 μg/ml, 37°, 4 h",80
same,Relative activity,"[3]; α-chymotrypsin 100 μg/ml, 37°, 12 h",1
same,"Cytochrome c reduction, Maximum rate",human neutrophils [4]; NAF 5 μl,0.81 nmol/min
same,"Cytochrome c reduction, Total in 3 min",human neutrophils [4]; NAF 5 μl,0.89 nmol
same,"Cytochrome c reduction, Maximum rate",human neutrophils [4]; NAF 10 μl,1.45 ± 0.63 nmol/min
same,"Cytochrome c reduction, Total in 3 min",human neutrophils [4]; NAF 10 μl,1.45 ± 0.50 nmol
same,"Cytochrome c reduction, Maximum rate",human neutrophils [4]; NAF 20 μl,2.32 ± 0.56 nmol/min
same,"Cytochrome c reduction, Total in 3 min",human neutrophils [4]; NAF 20 μl,2.16 ± 0.39 nmol
same,"Cytochrome c reduction, Maximum rate",human neutrophils [4]; NAF 30 μl,2.51 ± 0.50 nmol/min
same,"Cytochrome c reduction, Total in 3 min",human neutrophils [4]; NAF 30 μl,2.30 ± 0.55 nmol
same,"Cytochrome c reduction, Maximum rate",human neutrophils [4]; NAF 50 μl,3.51 ± 0.69 nmol/min
same,"Cytochrome c reduction, Total in 3 min",human neutrophils [4]; NAF 50 μl,3.10 ± 0.55 nmol
same,"Cytochrome c reduction, Maximum rate",human neutrophils [4]; NAF 100 μl,3.69 nmol/min
same,"Cytochrome c reduction, Total in 3 min",human neutrophils [4]; NAF 100 μl,3.39 nmol
